The values below come from patent US20030229066A1, “Novel heterocyclic urea derivatives and their use as dopamine D3 receptor ligands” (priority 2001, published 2003).

Molecules are shown by their SMILES.

One assay deals with T1, cloned human dopamine D3 receptors (Homo sapiens, UniProt P35462).
T1 construct: expressed in transfected cells
T1 sequence (P35462 whole entry): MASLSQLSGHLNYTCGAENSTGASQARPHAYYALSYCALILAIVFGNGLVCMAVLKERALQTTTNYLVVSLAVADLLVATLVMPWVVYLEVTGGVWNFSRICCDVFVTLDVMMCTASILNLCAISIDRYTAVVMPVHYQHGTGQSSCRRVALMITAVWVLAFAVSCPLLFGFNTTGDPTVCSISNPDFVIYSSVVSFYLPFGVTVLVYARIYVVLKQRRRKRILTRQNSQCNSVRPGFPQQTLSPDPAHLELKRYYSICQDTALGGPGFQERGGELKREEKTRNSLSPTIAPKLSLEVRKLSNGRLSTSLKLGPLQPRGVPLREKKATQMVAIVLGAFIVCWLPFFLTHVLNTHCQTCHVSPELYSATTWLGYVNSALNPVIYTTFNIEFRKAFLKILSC
The assay is described as follows: [N-Methyl-3H]Spiroperidol binding to cloned human dopamine D3 receptors.
Conditions: not given
The text has this:
[N-Methyl-^3H]Spiroperidol Binding to Cloned Human Dopamine D3 Receptors
This assay measures the in vitro activity of compounds on cloned human dopamine (D3) receptors and predicts the direct dopamine-blocking properties of putative neuropsychiatric agents at human dopamine D3 receptors.
The D3 gene was isolated from a human striatal cDNA library (Stratagene). The gene was sequenced and sub-cloned into the expression vector RC/RSV (Invitrogen). CHO (Chinese Hamster Ovary) cells were stably transfected with 10 μg of the D3/RSV plasmid using the DOTAP method from Boehringer Mannheim and 72 clones that were G418 resistant were isolated. Using mRNA and binding displacement data a single high expressing clone was identified. This clone was then grown in large batches for the purpose of developing a 96 well format assay.
The cells are harvested into 250 ml centrifuge tubes with 100 volumes of cold phosphate buffered saline (PBS) and spun down (1200×G for 10 min at 4° C.). The medium is removed and 100 ml PBS are added to each centrifuge tube, cells are resuspened and spun down again. The PBS is removed and the final pellet is homogenized in an appropriate volume of 10% DMSO with a polytron on ice at a medium setting.
For Kj determinations: [^3H]NMSP is made up to a concentration of 2.7 nM in buffer 2b, such that when 150 μl is added to each tube a final concentration of 0.4 nM is attained in the 1 ml assay. Samples of total CPM added are taken for each experiment to calculate the total ligand concentration.
5. S(-)-Eticlopride is obtained from Research Biochemicals International (RBI catalog number E-101). A refrigerated stock (good for up to a month) solution of S(-)-eticlopride is made at a concentration of 30 μM in buffer 2b. One hundred microliters are added to 3 wells for the determination of nonspecific binding (this yields a final concentration of 3 μM in the 1 ml assay).
For most assays, a 100 μM stock solution of the test compound is made up in a suitable solvent (usually <0.1% acetic acid) and serially diluted with buffer 2b, such that when 100 μl of drug is combined with the total 1 ml assay, final concentrations ranging from 10^−5-10^−8 M are attained. Characteristically eight concentrations are studied for each assay; however, higher or lower concentrations may be used, depending on the potency of the drug.
The 96-Well Packard Unifilters GF/B are incubated for >1 h at 25° C. in 0.1% polyethylamine (from 3,b). The cold tissue is added last and mixed on a orbital shaker for a few seconds and is then incubated at 37° C. for 30 min in a shaking water bath. The assay is stopped by rapid filtration through Packard Unifilter plates. The filter membranes are then washed with 15 ml of ice-cold 0.05 M Tris buffer. The filters are then dried (˜15 min under a heat lamp or incubated for 15 min in a 60° C. oven) and a bottom seal is applied. Then 40 μl of Packard Microscint 20 scintillation cocktail is added and a permanent topseal (Type P) is applied and heat sealed. The plates are then shaken on an orbital shaker for 1 h and placed in the Packard Topcount and counted for at least 5 minutes for each point.
Specific binding is defined as the difference between total binding and the binding in the presence of 3 μM S-(-)-eticlopride. Total binding is approximately 10% of the total added ligand. Cheng-Prusoff determination (Kj's) are performed using Prism software using a one-site competition curve analysis where the top and the bottom of the non-linear regression are held constant at 0% and 100% percent inhibition. The percent inhibition at each drug concentration is the mean of duplicate determinations.
On to `C=CCN(CC1CC1CN1CCCN(c2csc3cc(F)ccc23)CC1)C(=O)Nc1ccc(OC)cc1` (racemic) [compound 830389], for which the Ki turned out to be 0.00297 µM. On the same count and under the same terms, for `O=C(Nc1ccc(OC(F)(F)F)cc1)N(Cc1ccccc1)CC1CC1CN1CCCN(c2csc3cc(F)ccc23)CC1` (racemic) [compound 830400] the value was 0.0413 µM; for `O=C(Nc1ccc(Cl)c(Cl)c1)N(Cc1ccccc1)CC1CC1CN1CCCN(c2csc3cc(F)ccc23)CC1` (racemic) [compound 830401], 0.0297 µM; for `COc1ccc(NC(=O)NCC2CC2CN2CCCN(c3csc4cc(F)ccc34)CC2)cc1` (racemic) [compound 830408], 0.00343 µM. For `O=C(NCC1CC1CN1CCCN(c2csc3cc(F)ccc23)CC1)Nc1ccc(Cl)c(Cl)c1` (racemic) [compound 830409], the Ki was found to be 0.0474 µM.

Compound `CC(C)(C)NC(=O)NCC1CC1CN1CCC(c2noc3ccsc23)CC1` (racemic) [compound 831498] had a Ki of 0.0436 µM.

As for `O=C(NCCc1ccccc1)NCC1CC1CN1CCC(c2noc3ccsc23)CC1` (racemic) [compound 831670], the Ki was 0.159 µM.

Still in this assay, the particulars now being: Table III; read-out: d3Ki.
Turning to `COc1ccc(NC(=O)NCCCCN2CCN(c3csc4cc(C(F)(F)F)ccc34)CC2)cc1` [815994A], the Ki was found to be 0.00594 µM. On the same count and under the same terms, for `Cc1ccc(NC(=O)NCCCCN2CCN(c3csc4cc(C(F)(F)F)ccc34)CC2)cc1` [815997A] the value was 0.00408 µM; for `CC(=O)c1ccc(NC(=O)NCCCCN2CCN(c3c(Cl)sc4cc(F)ccc34)CC2)cc1` [compound 815158], 0.0074 µM; for `O=C(NCCCCN1CCN(c2c(Cl)sc3cc(F)ccc23)CC1)Nc1ccc(Oc2ccccc2)cc1` [compound 815159], 0.0854 µM. Still for that read-out and setting: in the case of `O=C(NCCCCN1CCN(c2c(Cl)sc3cc(F)ccc23)CC1)Nc1ccc(-c2ccccc2)cc1` [compound 815160] it was 0.192 µM. Same read-out and setting: in the case of `O=C(NCCCCN1CCN(c2c(Cl)sc3cc(F)ccc23)CC1)Nc1ccc(OCc2ccccc2)cc1` [compound 815161] it was 0.0759 µM.

Consider `O=C(NCCCCN1CCN(c2c(Cl)sc3cc(F)ccc23)CC1)Nc1ccc(C(F)(F)F)cc1` [compound 815162], for which the Ki worked out at 0.038 µM. Take `O=C(NCCCCN1CCN(c2c(Cl)sc3cc(F)ccc23)CC1)Nc1cccc(F)c1` [compound 815163]: the Ki amounted to 0.0252 µM.

For `O=C(NCCCCN1CCN(c2c(Cl)sc3cc(F)ccc23)CC1)Nc1ccc(F)cc1` [compound 815164], the Ki amounted to 0.0319 µM. With `COc1ccc(NC(=O)NCCCCN2CCN(c3c(Cl)sc4cc(F)ccc34)CC2)cc1` [compound 815165], the Ki worked out at 0.0214 µM. The same measure, in the same setting: in the case of `CCCCOc1ccc(NC(=O)NCCCCN2CCN(c3c(Cl)sc4cc(F)ccc34)CC2)cc1` [compound 815166] it was 0.037 µM; in that of `CC(C)c1ccc(NC(=O)NCCCCN2CCN(c3c(Cl)sc4cc(F)ccc34)CC2)cc1` [compound 815167], 0.048 µM. The same measure, in the same setting: for `O=C(NCCCCN1CCN(c2c(Cl)sc3cc(F)ccc23)CC1)Nc1ccc(I)cc1` [compound 815168] the value was 0.0334 µM; for `O=C(NCCCCN1CCN(c2c(Cl)sc3cc(F)ccc23)CC1)Nc1ccccc1Cl` [compound 815169], 0.0112 µM.

In the case of `CCCCc1ccc(NC(=O)NCCCCN2CCN(c3c(Cl)sc4cc(F)ccc34)CC2)cc1` [compound 815170], the Ki came to 0.0177 µM. On the same count and under the same terms, in the case of `Cc1ccc(NC(=O)NCCCCN2CCN(c3c(Cl)sc4cc(F)ccc34)CC2)cc1` [compound 815171] it was 0.0038 µM; in that of `O=C(NCCCCN1CCN(c2c(Cl)sc3cc(F)ccc23)CC1)Nc1ccc(Cl)cc1` [compound 815172], 0.0056 µM.

On to `O=C(NCCCCN1CCN(c2c(Cl)sc3cc(F)ccc23)CC1)Nc1ccccc1C(F)(F)F` [compound 815173], for which the Ki was 0.0465 µM. Same read-out and setting: for `O=C(NCCCCN1CCN(c2c(Cl)sc3cc(F)ccc23)CC1)Nc1ccc(Br)cc1` [compound 815174] the value was 0.006 µM; for `O=C(NCCCCN1CCN(c2c(Cl)sc3cc(F)ccc23)CC1)Nc1cccc2ccccc12` [compound 815175], 0.0118 µM; for `O=C(NCCCCN1CCN(c2c(Cl)sc3cc(F)ccc23)CC1)NCc1ccccc1` [compound 815177], 0.018 µM.

For `S=C(NCCCCN1CCC(c2noc3ccsc23)CC1)Nc1ccccc1` [compound 815383], the Ki stood at 0.19 µM.

Take `O=C(NCCCCN1CCC(c2noc3ccsc23)CC1)Nc1ccc(Br)cc1` [compound 815386]: the Ki amounted to 0.018 µM. Regarding `O=C(NCCCCN1CCC(c2noc3ccsc23)CC1)Nc1ccc(-c2ccccc2)cc1` [compound 815387], the Ki stood at 0.028 µM. Still for that read-out and setting: in the case of `O=C(NCCCCN1CCC(c2noc3ccsc23)CC1)NC1CCCCC1` [compound 815389] it was 0.03 µM; in that of `O=C(NCCCCN1CCC(c2noc3ccsc23)CC1)Nc1cccc2ccccc12` [compound 815390], 0.052 µM.

In the case of `O=C(NCCCCN1CCC(c2noc3ccsc23)CC1)Nc1ccc(Oc2ccccc2)cc1` [compound 815391], the Ki came to 0.016 µM. `O=C(NCCCCN1CCC(c2noc3ccsc23)CC1)NC12CC3CC(CC(C3)C1)C2` [compound 815392]: the Ki turned out to be 0.024 µM. The same measure, in the same setting: in the case of `CCc1cccc(NC(=O)NCCCCN2CCC(c3noc4ccsc34)CC2)c1` [compound 815934] it was 0.00419 µM; in that of `O=C(NCCCCN1CCC(c2noc3ccsc23)CC1)Nc1ccc(OC(F)(F)F)cc1` [compound 815935], 0.0538 µM; in that of `O=C(NCCCCN1CCC(c2noc3ccsc23)CC1)Nc1cc(C(F)(F)F)ccc1Cl` [compound 815936], 0.00391 µM. Same read-out and setting: for `CC(NC(=O)NCCCCN1CCC(c2noc3ccsc23)CC1)c1ccc(Br)cc1` (stereo not shown) [compound 815937] the value was 0.0663 µM; for `CCO[Si](CCCNC(=O)NCCCCN1CCC(c2noc3ccsc23)CC1)(OCC)OCC` [compound 815938], 0.153 µM. `O=C(NCCCCN1CCC(c2noc3ccsc23)CC1)Nc1ccccc1Br` [compound 815939]: the Ki came out at 0.0191 µM. For the compound `CCNC(=O)NCCCCN1CCC(c2noc3ccsc23)CC1` [compound 815940], the Ki was found to be 0.14 µM. On the same count and under the same terms, for `CCOC(=O)c1ccccc1NC(=O)NCCCCN1CCC(c2noc3ccsc23)CC1` [compound 815941] the value was 0.128 µM.

For `CCOC(=O)C(CC(C)C)NC(=O)NCCCCN1CCC(c2noc3ccsc23)CC1` (stereo not shown) [compound 815942], the Ki turned out to be 0.0417 µM. The same measure, in the same setting: for `CCOC(=O)CCNC(=O)NCCCCN1CCC(c2noc3ccsc23)CC1` [compound 815943] the value was 0.198 µM. On the same count and under the same terms, for `COC(=O)C(Cc1ccccc1)NC(=O)NCCCCN1CCC(c2noc3ccsc23)CC1` (stereo not shown) [compound 815944] the value was 0.297 µM. Still for that read-out and setting: in the case of `O=C(NCCCCN1CCC(c2noc3ccsc23)CC1)NCc1cc(=O)oc2cc3c(cc12)OCO3` [compound 815945] it was 0.116 µM; in that of `CCCCCCCCNC(=O)NCCCCN1CCC(c2noc3ccsc23)CC1` [compound 815946], 0.0283 µM; in that of `COc1c(Cl)cccc1NC(=O)NCCCCN1CCC(c2noc3ccsc23)CC1` [compound 815947], 0.026 µM. Regarding `O=C(NCCCCN1CCC(c2noc3ccsc23)CC1)Nc1ccccc1F` [compound 815948], the Ki turned out to be 0.00604 µM.

Regarding `O=C(NCCCCN1CCC(c2noc3ccsc23)CC1)Nc1ccccc1Cl` [compound 815949], the Ki was 0.0136 µM. Still for that read-out and setting: for `CC(C)c1ccccc1NC(=O)NCCCCN1CCC(c2noc3ccsc23)CC1` [compound 815952] the value was 0.027 µM; for `C=C(C)c1cccc(C(C)(C)NC(=O)NCCCCN2CCC(c3noc4ccsc34)CC2)c1` [compound 815953], 0.0679 µM; for `CCOC(=O)c1ccc(NC(=O)NCCCCN2CCC(c3noc4ccsc34)CC2)cc1` [compound 815954], 0.0149 µM. On the same count and under the same terms, in the case of `O=C(NCCCCN1CCN(c2csc3cc(C(F)(F)F)ccc23)CC1)Nc1cccc2ccccc12` [compound 815996] it was 0.00585 µM.
